Test results taken from patent EP0322748B1, “Antibiotic NK86-0279, process for production of the same and application of the same” (NIPPON KAYAKU KABUSHIKI KAISHA, priority 1987, dated 1989).
In brackets after ≈: the same amount, converted by molar mass.

Columns and labels:
[1] = system: vascularization by the Ehrlich ascites tumor cells crude extract; test: vascularization-inhibitory effect, corneal assay; type: in vivo; conditions: slow-releasing pellet in rabbit cornea, compared with a control group
Procedure: The vascularization-inhibitory effect of the compound of the present invention was examined by corneal assay reported by M.A. Gimbrone et al. (J. National Cancer Inst., 52, 413 (1974)). Namely, the center of the cornea of the eye of a rabbit was incised with a knife at a length of approximately 2 mm to thereby form a pouch. Then a slow-releasing pellet containing 100 µg of a crude extract of Ehrlich ascites tumor cells, which had been preliminarily prepared according to a method proposed by R. Langer et al. (Nature, 263, 797 […]), was introduced into the pouch. Further another slow-releasing pellet containing 0.3 to 81 µg of the compound of the present invention was introduced thereinto so as to contact these pellets with each other. Then the degree of vascularization was observed four, six, eight and ten days after the introduction.

[2] = system: human colonic cancer cells (SWlll6); test: growth-inhibitory effect on human colonic cancer cells, dye exclusion method; type: cell-based
Procedure: (§1) The growth-inhibitory effects of the compound of the present invention on mouse colonic cancer cells (Colon 26) and human colonic cancer cells (SWlll6) were examined. A 96-well plate was inoculated with mouse colonic cancer cells at a ratio of 1.5 x 10³ cells per well, while another 96-well plate was inoculated with human colonic cancer cells at a ratio of 3.0 x 10³ per well. These cells were incubated in an incubator at 37°C under 5 % CO₂ for 24 hours. Then the compound of the present invention was added thereto at various concentrations. Cells in each well were counted by the dye exclusion method 65 hours and 96 hours after the addition to thereby evaluate the growth-inhibitory effect of the test compound on the mouse colonic cancer cells and that on the human colonic cancer cells.

[3] = system: human melanoma cells (A375); test: growth-inhibitory effect on human melanoma cells, dye exclusion method; type: cell-based
Procedure: as §1, with “melanoma” for “colonic cancer”, “(B16)” for “(Colon 26)”, “(A375)” for “(SWlll6)”, “1.0” for “3.0”, “CO₂.” for “CO₂ for 24 hours.”, “hours” for “hours and 96 hours”

[4] = system: mouse malignant melanoma (B16 melanotic melanoma); test: in-vivo test by intraperitoneal administration against mouse malignant melanoma, tumor volume; design: species or system BDF₁ mouse; conditions: 11 days after inoculation
From the text: The anti-cancer action of the compound of the present invention against mouse malignant melanoma (B16 melanotic melanoma) was examined. 4 x 10⁵ mouse malignant melanoma cells were inoculated into a subcutaneous portion of the right body side of a 8 week-old male BDF₁ mouse, and the compound of the present invention was intraperitoneally administered to the mouse in various concentrations every day from the next day of the inoculation once a day for 10 days. On the 11 days after the inoculation the minor axis and the major axis of the tumor were measured, and the volume of the tumor was determined by using the following equation: (minor axis)² x […] [formula] . Then, the percentage inhibition of proliferation of each tumor with respect to the compound of the present invention was determined from the ratio of the volume of the tumor on the groups of administration of the compound of the present invention relative to that on the control group.

[5] = system: mouse breast cancer (Ehrlich B); test: anti-cancer action against grafted mouse breast cancer, tumor volume; type: in vivo
From the text: The anti-cancer action of the compound of the present invention against mouse lung cancer (lewis lung carcinoma) and mouse breast cancer (Ehrlich B) was examined. 1 x 10⁶ mouse lung cancer cells or mouse breast cancer cells were grafted into a subcutaneous portion of the groin of an eight week-old male BDF₁ or ICR mouse, and the compound of the present invention was intraperitoneally administered to the mouse in various concentrations every day from two days after the graft once a day for 9 days. On the second day after completion of the administration, the minor axis and the major axis of the tumor were measured, and the volume of the tumor was determined by using the following equation: (minor axis)² x […]/2 [formula] . Then, the percentage inhibition of proliferation of each tumor with respect to the compound of the present invention was determined from the ratio of the volume of the tumor on the groups of administration of the compound of the present invention relative to that on the control group.

[6] = system: mouse malignant melanoma (B16 melanotic melanoma); test: in-vivo test by peroral administration against mouse malignant melanoma, tumor volume; design: species or system C57BL/6 mouse
From the text: The anti-cancer action of the compound of the present invention against mouse malignant melanoma (B16 melanotic melanoma) was examined. 5 x 10⁵ mouse malignant melanoma cells were inoculated into a subcutaneous portion of the right body side of a 6 week-old male C57BL/6 mouse, and the compound of the present invention was perorally administered to the mouse in various concentrations every day from the next day or from 7 days after the inoculation once a day for 5 days. On the 11 days after the inoculation, the minor axis and the major axis of the tumor were measured, and the volume of the tumor was determined by using the following equation: (minor axis)² x […] [formula] . Then, the percentage inhibition of proliferation of each tumor with respect to the compound of the present invention was determined from the ratio of the volume of the tumor on the groups of administration of the compound of the present invention relative to that on the control group.

SMILES: CCC1C=CC=CCC(C)C(O)C(C)(O)C(=O)C(C)C(O)C(C)C(=O)C(C)C(O)C(C)C=CC(=O)OC2C(C)C(CC1)OC1(OC(CC(C)O)C(C)CC1=O)C2CC (centres unmarked) [NK86-0279]
- degree of vascularization ([1]; 1 µg or above): significantly retarded till the fourth day
- degree of vascularization ([1]; 1.7 µg or above): till the eighth day
- inhibition at 0.0061 µg/mL ([2]; Homo sapiens, SW 1116, SWlll6, 0.0061 µg/ml, read-out: Growth-inhibitory ratio): 33.3%
- inhibition at 0.024 µg/mL ([2]; Homo sapiens, SW 1116, SWlll6, 0.024 µg/ml, read-out: Growth-inhibitory ratio): 51.7%
- inhibition at 0.098 µg/mL ([2]; Homo sapiens, SW 1116, SWlll6, 0.098 µg/ml, read-out: Growth-inhibitory ratio): 54.6%
- inhibition at 0.39 µg/mL ([2]; Homo sapiens, SW 1116, SWlll6, 0.39 µg/ml, read-out: Growth-inhibitory ratio): 53.5%
- inhibition at 1.56 µg/mL ([2]; Homo sapiens, SW 1116, SWlll6, 1.56 µg/ml, read-out: Growth-inhibitory ratio): 52.2%
- inhibition at 6.25 µg/mL ([2]; Homo sapiens, SW 1116, SWlll6, 6.25 µg/ml, read-out: Growth-inhibitory ratio): 80.8%
- inhibition at 25 µg/mL ([2]; Homo sapiens, SW 1116, SWlll6, 25 µg/ml, read-out: Growth-inhibitory ratio): 91.9%
- inhibition at 100 µg/mL ([2]; Homo sapiens, SW 1116, SWlll6, 100 µg/ml, read-out: Growth-inhibitory ratio): 90.7%
- IC50 ([2]; human colonic cancer cells (SWlll6), read-out: IC₅₀): 0.021 µg/mL (≈ 0.0256 µM)
- IC50 ([3]; A-375, human melanoma cells (A375), 65 hours after the addition, read-out: IC₅₀): 1.87 µg/mL (≈ 2.28 µM)
- inhibition at 0.0061 µg/mL ([3]; Homo sapiens, A-375, 65 h, A375, 0.0061 µg/ml, read-out: Growth-inhibitory ratio): 19.7%
- inhibition at 0.024 µg/mL ([3]; Homo sapiens, A-375, 65 h, A375, 0.024 µg/ml, read-out: Growth-inhibitory ratio): 39.7%
- inhibition at 0.098 µg/mL ([3]; Homo sapiens, A-375, 65 h, A375, 0.098 µg/ml, read-out: Growth-inhibitory ratio): 49.4%
- inhibition at 0.39 µg/mL ([3]; Homo sapiens, A-375, 65 h, A375, 0.39 µg/ml, read-out: Growth-inhibitory ratio): 43.7%
- inhibition at 1.56 µg/mL ([3]; Homo sapiens, A-375, 65 h, A375, 1.56 µg/ml, read-out: Growth-inhibitory ratio): 44.4%
- inhibition at 6.25 µg/mL ([3]; Homo sapiens, A-375, 65 h, A375, 6.25 µg/ml, read-out: Growth-inhibitory ratio): 83.6%
- inhibition at 25 µg/mL ([3]; Homo sapiens, A-375, 65 h, A375, 25 µg/ml, read-out: Growth-inhibitory ratio): 105%
- inhibition at 100 µg/mL ([3]; Homo sapiens, A-375, 65 h, A375, 100 µg/ml, read-out: Growth-inhibitory ratio): 105%
- Growth-inhibitory ratio (tumor volume) ([4]; 0.012 mg/kg intraperitoneally once a day for 10 days): 50.7%
- Growth-inhibitory ratio (tumor volume) ([4]; 0.021 mg/kg intraperitoneally once a day for 10 days): 19.3%
- Growth-inhibitory ratio (tumor volume) ([4]; 0.037 mg/kg intraperitoneally once a day for 10 days): 41.4%
- Growth-inhibitory ratio (tumor volume) ([4]; 0.064 mg/kg intraperitoneally once a day for 10 days): 40.5%
- Growth-inhibitory ratio (tumor volume) ([4]; 0.111 mg/kg intraperitoneally once a day for 10 days): 38.4%
- Growth-inhibitory ratio (tumor volume) ([4]; 0.192 mg/kg intraperitoneally once a day for 10 days): 54.7%
- Growth-inhibitory ratio (tumor volume) ([4]; 0.333 mg/kg intraperitoneally once a day for 10 days): 53.2%
- Growth-inhibitory ratio (tumor volume) ([4]; 0.577 mg/kg intraperitoneally once a day for 10 days): 60.4%
- Growth-inhibitory ratio (tumor volume) ([4]; 1.000 mg/kg intraperitoneally once a day for 10 days): 80%
- Growth-inhibitory ratio (tumor volume) ([5]; 0.032 mg/kg intraperitoneally once a day for 9 days): 22.5%
- Growth-inhibitory ratio (tumor volume) ([5]; 0.063 mg/kg intraperitoneally once a day for 9 days): -0.4%
- Growth-inhibitory ratio (tumor volume) ([5]; 0.125 mg/kg intraperitoneally once a day for 9 days): 44.3%
- Growth-inhibitory ratio (tumor volume) ([5]; 0.250 mg/kg intraperitoneally once a day for 9 days, 0.25 mg/kg): 67%
- Growth-inhibitory ratio (tumor volume) ([5]; 0.500 mg/kg intraperitoneally once a day for 9 days): 61.7%
- Growth-inhibitory ratio (tumor volume) ([6]; 0.5 mg/kg perorally once a day for 5 days, administered from 7 days after the inoculation): 44.7%
- Growth-inhibitory ratio (tumor volume) ([6]; 0.5 mg/kg perorally once a day for 5 days, administered from the next day of the inoculation): 90.5%
- Growth-inhibitory ratio (tumor volume) ([6]; 1.0 mg/kg perorally once a day for 5 days, administered from 7 days after the inoculation): 72.3%
- Growth-inhibitory ratio (tumor volume) ([6]; 1.0 mg/kg perorally once a day for 5 days, administered from the next day of the inoculation): 94.6%
- Growth-inhibitory ratio (tumor volume) ([6]; 2.0 mg/kg perorally once a day for 5 days, administered from 7 days after the inoculation): 57.4%
- Growth-inhibitory ratio (tumor volume) ([6]; 2.0 mg/kg perorally once a day for 5 days, administered from the next day of the inoculation): 69.5%
- Growth-inhibitory ratio (tumor volume) ([6]; 4.0 mg/kg perorally once a day for 5 days, administered from 7 days after the inoculation): 75.5%
- Growth-inhibitory ratio (tumor volume) ([6]; 4.0 mg/kg perorally once a day for 5 days, administered from the next day of the inoculation): 64.5%
- Growth-inhibitory ratio (tumor volume) ([6]; 8.0 mg/kg perorally once a day for 5 days, administered from 7 days after the inoculation): 67.0%
- Growth-inhibitory ratio (tumor volume) ([6]; 8.0 mg/kg perorally once a day for 5 days, administered from the next day of the inoculation): 66.0%
